In general, Ki refers to a dissociation constant, usually derived from enzyme kinetics or from competition with a known ligand. Read a high Ki as lower affinity.

Results on four substances are retold here after publication PMC3598007, “Interactions of zebrafish peptide YYb with the neuropeptide Y-family receptors Y4, Y7, Y8a, and Y8b” (Frontiers in Neuroscience, 2013).

One assay concerns Y8a (Yc). The experiment in a line: Competition binding with 125I-pPYY, zebrafish Y8a receptor (CHO-cells). An excerpt:
(§1) The zebrafish receptors have previously been cloned and expressed in cell lines by our laboratory. The zebrafish Y8a and Y8b receptors were inserted in a pTEJ-8 vector and stably expressed in CHO-cells (Ringvall et al., [1997]; Berglund et al., [2000]). Y7 has been inserted in a pCEP4 vector and semi-stably expressed in HEK 293-EBNA cells (Fredriksson et al., [2004]). The zebrafish Y4 receptor coding region was inserted in a pTEJ-8 vector (Starback et al., [1999]) and transient expressed in HEK cells. The cell-lines were grown according to the recommendations of the manufacturer. Ninety percent of the confluent cells were harvested and mixed with 100 μl 25 mM HEPES buffer (pH 7.4 and 2.5 mM CaCl2 and 1 mM MgCl2) and stored at −80°C.
(§2) Thawed aliquots of transfected cells were mixed with 1 ml 25 mM HEPES buffer (pH 7.4, 2.5 mM CaCl2, 1 mM MgCl2 and 0.2 g/l bacitracin). The samples were homogenized and another 1 ml buffer was added. ^125I-pPYY was used as radioligand in all experiments, radioligand, and unlabeled ligands (serial concentrations of zfNPY, zfPYYa, and zfPYYb respectively) and cells were mixed at the proportion 2:1:1 in 100 μl reactions followed by 2 h incubation. […] The radioactivity was measured using a Wallac 1450 Betaplate counter and the results were analyzed using Prism 4.0 software package (GraphPad, San Diego, CA, USA). […]

A further assay concerns Y7. Put plainly: Competition binding with 125I-pPYY, zebrafish Y7 receptor (HEK 293-EBNA cells). The following applies: for Ki: zebrafish Y7, semi-stably expressed in HEK 293-EBNA cells, competition with 125I-pPYY, 25 mM HEPES pH 7.4, 2.5 mM CaCl2, 1 mM MgCl2, bacitracin, 2 h incubation, mean ± SEM, n = 5 (zfNPY), 3 (zfPYYa), 5 (zfPYYb).
Source text: as §1
Thawed aliquots of transfected cells were mixed with 1 ml 25 mM HEPES buffer (pH 7.4, 2.5 mM CaCl2, 1 mM MgCl2 and 0.2 g/l bacitracin). The samples were homogenized and another 1 ml buffer was added. ^125I-pPYY was used as radioligand in all experiments, radioligand, and unlabeled ligands (serial concentrations of zfNPY, zfPYYa, and zfPYYb respectively) and cells were mixed at the proportion 2:1:1 in 100 μl reactions followed by 2 h incubation. The zebrafish NPY (zfNPY) and PYYa (zfPYYa) were synthesized at Eli Lilly and Company. The zebrafish PYYb (zfPYYb) was supplied in a crude form by GL Biochem Shanghai and purified as previously described (Fredriksson et al., [2006]). The incubation was terminated by rapid filtration through GF/C filters pre-soaked in 0.3% polyethyleneimin, using a TOMTEC cell harvester (Orange, CT, USA). The filters were washed with 50 mM Tris-HCl (pH 7.4) and dried at 50°C for 30 min. Filters were treated with MeltiLex A melt on scintillator sheets (Perkin Elmer, Boston, MA, USA). The radioactivity was measured using a Wallac 1450 Betaplate counter and the results were analyzed using Prism 4.0 software package (GraphPad, San Diego, CA, USA). The pKi values were compared to each other using One-Way ANOVA followed by Tukey-Kramer Multiple Comparison Test (GraphPad, San Diego, CA, USA).
The zebrafish receptors were expressed in mammalian cells and the membrane fraction was used for binding experiments. Competition binding experiments were performed using the three endogenous ligands NPY, PYYa and PYYb in competition with iodinated porcine PYY. The mature 36 amino acid PYYb peptide has fourteen differences compared to NPY and seven when compared with PYYa (see Figure 1). PYYa differs from NPY at nine positions. Thus, PYYb has clearly changed more than PYYa after duplication of their common ancestral gene.

The test system of the next assay is Y8b (Yb). Put plainly: Competition binding with 125I-pPYY, zebrafish Y8b receptor (CHO-cells). To be noted: stably expressed in CHO-cells, competition with 125I-pPYY, 25 mM HEPES pH 7.4, 2.5 mM CaCl2, 1 mM MgCl2, bacitracin, 2 h incubation, mean ± SEM, n = 4 (zfNPY), 3 (zfPYYa), 4 (zfPYYb).
Source text: as §1, §2

Another assay concerns Y4(Ya). Put plainly: Competition binding with 125I-pPYY, zebrafish Y4 receptor (HEK cells). The following applies: transiently expressed in HEK cells, competition with 125I-pPYY, 25 mM HEPES pH 7.4, 2.5 mM CaCl2, 1 mM MgCl2, bacitracin, 2 h incubation, mean ± SEM, n = 3 (zfNPY), 3 (zfPYYa), 3 (zfPYYb).
Source text: as §1, §2

The test system of a further assay is Y4. To be noted: PP, PYY and NPY compared, ref Lundell et al., 1995, 2002; cited from earlier work. An excerpt: Functional and evolutionary studies in mammals have shown that their Y4 receptor has evolved a partnership with pancreatic polypeptide (PP). It should be stressed that PYYb is not the teleost fish ortholog of PP, instead the latter is a tandem duplicate of PYY that probably took place early in the tetrapod lineage. […] Thus, the PP-Y4 preference seems to have evolved in mammals (Lundell et al., [1995], [2002]). One aim of the present study was to investigate ...

The subject of assay [1] is Y2. To be noted: mammals; PYY3-36 formed by dipeptidyl peptidase IV cleavage; ref Mentlein et al., 1993; cited from earlier work. An excerpt: Studies of how NPY affects appetite have been conducted in several fish species (Narnaware et al., [2000]; Narnaware and Peter, [2001]) and the NPY system seems to influence food intake, although the orexigenic receptor subtypes have not been identified in the fish species studied. The receptors that in mammals are involved in inhibition of appetite have been known in zebrafish for several years and there have been some studies investigating how PYY can inhibit feeding. In mammals it seems like the main inhibitory action on appetite is performed by PYY3-36. This peptide is the result of cleava ...

Assay [2] relates to Y2. The following applies: zebrafish Y2, ref Fredriksson et al., 2006, cited from earlier work. An excerpt:
The neuropeptide Y (NPY) system influences numerous physiological functions including feeding behavior, endocrine regulation, and cardiovascular regulation. In jawed vertebrates it consists of 3–4 peptides and 4–7 receptors. Teleost fishes have unique duplicates of NPY and PYY as well as the Y8 receptor. In the zebrafish, the NPY system consists of the peptides NPYa, PYYa, and PYYb (NPYb appears to have been lost) and at least seven NPY receptors: Y1, Y2, Y2-2, Y4, Y7, Y8a, and Y8b. Previously PYYb binding has been reported for Y2 and Y2-2. To search for peptide-receptor preferences, we have i ... || The main objective of this study was to examine the affinity of PYYb for the Y4, Y7, Y8a, and Y8b receptors, and to compare it to the other two endogenous peptides, NPY and PYYa. […] The zebrafish Y7 receptor is 50% identical to zebrafish Y2 and PYYa has low affinity for both of these. This observation will be interesting to correlate with the physiological roles of the peptides and receptors in z ... || (+ 1 further places)

Entries after “also recorded” stand apart in the source; their conditions may differ. No end group written: not given here.

“zfNPY: endogenous zebrafish neuropeptide Y, synthesized at Eli Lilly and Company”: the inhibition constant Ki in the assay on Y8a (Yc) (zebrafish Y8a (Yc), stably expressed in CHO-cells, competition with 125I-pPYY, 25 mM HEPES pH 7.4, 2.5 mM CaCl2, 1 mM MgCl2, bacitracin, 2 h incubation, mean ± SEM, n = 7 (zfNPY), 6 (zfPYYa), 4 (zfPYYb)) came to 0.21 ± 0.07 nM; with Y7 it was 0.57 ± 0.16 nM; in the assay with Y8b (Yb) it was 0.13 ± 0.04 nM; in the assay with Y4(Ya) it was 0.033 ± 0.005 nM.

For the substance “chicken PP: chicken pancreatic polypeptide (GPSQPTYPGDDAPVEDLIRFYNDLQQYLNVVTRHRY; ends and bridges not checked; UniProt P68248 26-61, looked up)”, in the assay on Y4, the “affinity for chicken Y4” value is “equal affinities”.

For the substance PYY3-36, the “selectivity for Y2 over the other receptor subtypes” value in the assay on Y2 [1] was “selectivity for Y2 over the other receptor subtypes”.

Consider “zfPYYa: endogenous zebrafish PYYa, synthesized at Eli Lilly and Company”, for which the “affinity for Y8a compared with the other two peptides” value in the assay with Y8a (Yc) (zebrafish Y8a, PYYa vs NPY and PYYb) is recorded as “slightly lower than the other two peptides”. In addition, the inhibition constant Ki in the assay on Y7 turned out to be 1.82 nM; with Y8b (Yb) it was 0.25 ± 0.12 nM; in the assay on Y4(Ya) it was 0.034 ± 0.009 nM. For the same substance, the “fold lower affinity for Y7 than NPY and PYYb” value with Y7 (zebrafish Y7, PYYa vs NPY and PYYb) turned out to be 3 fold. In the assay with Y7 (zebrafish Y7, pKi compared by One-Way ANOVA, Tukey-Kramer), the “affinity for Y7 compared with NPY and PYYb” value is “significantly lower affinity; also recorded: low affinity”. Moreover, in the assay with Y2 [2] (previously reported), the “affinity for Y2” value is given as 3 nM. In addition, the “preference of Y2 / affinity for Y2” value in the assay on Y2 [2] is “low affinity”.
